Values after ≈ are worked out from the molar mass of the structure shown. Read-outs that look alike come from different tables or passages of the source. Marks after values point to notes of the source that are not given here.
What was measured:
[1] = test system: C. albicans strain ATCC 90028; assay: Fold reduction of live cells after 24 hr incubation with combinations of azoles and potentiators; type: cell-based, Candida albicans
Experimental: (§1) Eleven structural analogs of INF 801 and fourteen analogs of INF 802 were purchased from ChemBridge, Maybridge and Aldrich and tested for activity. […] The numbers presented in these two tables indicate the -fold reduction in the number of live cells after 24 hour incubation with the combinations of azoles and potentiators. The higher the number, the higher the fungicidal activity of the combination. Note that concentrations of drags are somewhat different in the two tables, so the comparison between the two tables is not meaningful. [table] [table]

C. albicans [2] = assay: Fungicidal synergy with fluconazole against C. albicans (active concentration of leads and analogs); type: cell-based, Candida albicans; conditions: for activity (concentration synergizing with fluconazole to a fungicidal effect): fluconazole 32 μg/ml; for concentration at which fungicidal activity is observed: combined with high concentrations of fluconazole (16 μg/ml and more)
Experimental: In summary, the performed screens of the chemical library identified a number of interesting potentiators of azole activity. Of these potentiators the inventors chose for further development two lead compounds, INF 801 and INF 802. […] Unlike compound INF 799, which is active at very low concentration (2 ng/ml, see above), INF 801 and INF 802 need to be present at relatively high concentrations to be active. When combined with high concentrations of fluconazole (16 μg/ml and more), their fungicidal activity is observed at 1.25 or 2.5 μg/ml, respectively. At concentrations of the azole that are clinically relevant (4 μg/ml), they are active only at ˜5-10 μg/ml.
as §1, with “meaningful.” for “meaningful. [table] [table]”

[3] = cited from earlier work
C. albicans [4] = assay: Growth of C. albicans in liquid culture with compound alone (without fluconazole); type: cell-based, Candida albicans
C. albicans [5] = assay: Paper disk zones of inhibition on YPD agar plates inoculated with C. albicans; type: cell-based, Candida albicans; conditions: for zone of inhibition, combination with fluconazole: disk with fluconazole 1 mg/ml + compound 2.5 mg/ml
C. albicans [6] = assay: Time-kill experiments in liquid culture of C. albicans; type: cell-based, Candida albicans; conditions: for effect on growth of the yeast, compound alone: 10 μg/ml, no fluconazole; for colonies from plating of a milliliter of culture: combination with fluconazole, culture initially 3000 CFU/ml; for drop in number of live cells after 24 hours, combination with fluconazole / drop in number of live cells after 48 hours, combination with fluconazole: fluconazole 32 μg/ml + compound 10 μg/ml
[7] = test system: Candida krusei Strain M13C4; assay: MIC of fluconazole for Candida krusei with lead compounds; type: cell-based; conditions: for MIC of fluconazole: Fluconazole + lead compound
[8] = test system: Candida krusei Strain M13C4; assay: Killing of Candida krusei by fluconazole combinations (CFU/ml after 24 hours); type: cell-based; conditions: for effect in combination with fluconazole on C. kruzei: fluconazole at concentration exceeding its MIC; for CFU/ml after 24 hours incubation: inoculated at 6000 CFU/ml; for effect of compound alone on C. kruzei: not shown
[9] = test system: sterol composition of C. Albicans; assay: TLC analysis of sterols of C. albicans; type: cell-based, Candida albicans; conditions: 24 hours
[10] = test system: C. albicans isolates (sensitive; isolate #4 over expressing MDR1); assay: microbe, parasite or virus in culture; type: cell-based; conditions: Candida albicans
[11] = test system: Candida krusei Strain M13C4; conditions: cited from earlier work
C. albicans isolates = conditions: cited from earlier work
Solubility limit = type: physicochemical; conditions: liquid culture of C. albicans
[12] = compound at 5 μg/ml, inoculum 8000 CFU/ml
[13] = compound at 10 μg/ml, inoculum 7600 CFU/ml
[14] = disk soaked in fluconazole 1 mg/ml or compound 2.5 mg/ml in DMSO
[15] = fluconazole 128 μg/ml + compound 20 μg/ml

O=CC12c3ccccc3C(c3ccccc31)c1ccccc12 [S 060128]
fold reduction of the concentration of live cells, + Fluconazole, 16 μg/ml [1, 12]: 36 fold | fold reduction of the concentration of live cells, + Itraconazole, 1 μg/ml [1, 12]: 69 fold | fold reduction of the concentration of live cells, + Ketaconazole, 1 μg/ml [1, 12]: 380 fold

OCC(O)Cn1c2ccc(Br)cc2c2cc(Br)ccc21 (stereo not shown) [Compound S243213]
fold reduction of the concentration of live cells, + Fluconazole, 16 μg/ml [1, 13]: 6.9 fold | fold reduction of the concentration of live cells, + Itraconazole, 0.5 μg/ml [1, 13]: 6.3 fold | fold reduction of the concentration of live cells, + Ketaconazole, 0.5 μg/ml [1, 13]: 7.8 fold | activity (concentration synergizing with fluconazole to a fungicidal effect) (C. albicans [2]): 0.6 µg/mL

CCC(C)n1ncn(-c2ccc(N3CCN(c4ccc(OCC5COC(Cn6cncn6)(c6ccc(Cl)cc6Cl)O5)cc4)CC3)cc2)c1=O (stereo not shown) [Itraconazole]
absorption in the fasting state relative to drug taken with food ([3]; in vivo, po): 30%

O=C(O)CCn1c2ccc(Cl)cc2c2cc(Cl)ccc21 [INF 801]
concentration affecting growth of C. albicans without fluconazole (C. albicans [4]): exceeding 30 μg/ml | growth within zones after a week of incubation, combination with fluconazole (C. albicans [5]): no growth | zone of inhibition, single agent (C. albicans [5]; [14]): narrow zones of inhibition | zone of inhibition, combination with fluconazole (C. albicans [5]): large zones of inhibition lacking any growth | effect on growth of the yeast, compound alone (C. albicans [6]): very little effect on the growth of the yeast | colonies from plating of a milliliter of culture (C. albicans [6]): no colonies | drop in number of live cells after 24 hours, combination with fluconazole (C. albicans [6]): two orders of magnitude | drop in number of live cells after 48 hours, combination with fluconazole (C. albicans [6]; 48 hours): more than three orders of magnitude | MIC of fluconazole [7]: 16 mg/L | effect in combination with fluconazole on C. kruzei [8]: strongly fungicidal | CFU/ml after 24 hours incubation [8, 15]: 20 CFU/ml | effect of compound alone on C. kruzei [8]: harmless | fold reduction of the concentration of live cells, + Fluconazole, 16 μg/ml [1, 13]: 48* fold | fold reduction of the concentration of live cells, + Itraconazole, 0.5 μg/ml [1, 13]: 30 fold | fold reduction of the concentration of live cells, + Ketaconazole, 0.5 μg/ml [1, 13]: 28 fold | concentration at which fungicidal activity is observed (C. albicans [2]): 1.25 µg/mL | sterol pattern with fluconazole in the presence of INF 801 ([9]; differing concentrations of fluconazole): substituting sterols accumulate in much smaller amounts than in the control

OC(CN1CCC(/C=C/C2=CC=CCC2)CC1)Cn1c2ccc(Cl)cc2c2cc(Cl)ccc21 (stereo not shown) [DV 236687]
activity (concentration synergizing with fluconazole to a fungicidal effect) (C. albicans [2]): 10 µg/mL

OC(CN1CCC(/C=C/C2=CC=CCC2)CC1)Cn1c2ccccc2c2ccccc21 (stereo not shown) [DV 236683]
activity (concentration synergizing with fluconazole to a fungicidal effect) (C. albicans [2]): 5 µg/mL

OC(Cn1cncn1)(Cn1cncn1)c1ccc(F)cc1F [Fluconazole, reference compound]
MIC80 ([10]; read-out: MIC80 of fluconazole in sensitive isolates): 0.5 to 1 mg/L (≈ 1.63 to 3.27 µM) | MIC ([10]; read-out: MIC of fluconazole, isolate #4): 8 mg/L | zone of inhibition, single agent (C. albicans [5]): pronounced zone of growth inhibition | change in number of CFUs after 48 hours, fluconazole alone (C. albicans [6]; fluconazole 32 μg/ml, 48 hours): four orders of magnitude | MIC ([7]; Pichia kudriavzevii, STRAINM13C4, Fluconazole alone): 64 mg/L | effect of fluconazole alone on C. kruzei ([8]; 128 μg/ml): strongly fungistatic | CFU/ml after 24 hours incubation ([8]; fluconazole 128 μg/ml alone): 6230 CFU/ml | effect of fluconazole on ergosterol ([9]; increasing concentrations of fluconazole): decrease in the amount of ergosterol | MIC of fluconazole for C. kruzei (general range) [11]: 8 to 128 mg/L | MIC of fluconazole after 48 hours (C. albicans isolates; many isolates): exceeds 64 μg/ml | MIC of fluconazole after 24 hours of incubation (C. albicans isolates; most isolates): < 4 mg/L | absorption from the GI tract ([3]; in vivo): almost completely absorbed

O=C(O)C12c3ccccc3C(c3ccccc31)c1ccccc12 [INF 802]
concentration affecting growth of C. albicans without fluconazole (C. albicans [4]): > 80 µg/mL | growth within zones after a week of incubation, combination with fluconazole (C. albicans [5]): no growth | zone of inhibition, single agent (C. albicans [5]; [14]): narrow zones of inhibition | zone of inhibition, combination with fluconazole (C. albicans [5]): large zones of inhibition lacking any growth | effect on growth of the yeast, compound alone (C. albicans [6]): very little effect on the growth of the yeast | colonies from plating of a milliliter of culture (C. albicans [6]): no colonies | drop in number of live cells after 24 hours, combination with fluconazole (C. albicans [6]): two orders of magnitude | drop in number of live cells after 48 hours, combination with fluconazole (C. albicans [6]; 48 hours): more than three orders of magnitude | MIC of fluconazole [7]: 32 mg/L | effect in combination with fluconazole on C. kruzei [8]: strongly fungicidal | CFU/ml after 24 hours incubation [8, 15]: 20 CFU/ml | effect of compound alone on C. kruzei [8]: harmless | fold reduction of the concentration of live cells, + Fluconazole, 16 μg/ml [1, 12]: 5.5 fold | fold reduction of the concentration of live cells, + Itraconazole, 1 μg/ml [1, 12]: 5.0 fold | fold reduction of the concentration of live cells, + Ketaconazole, 1 μg/ml [1, 12]: 6.0 fold | concentration at which fungicidal activity is observed (C. albicans [2]): 2.5 µg/mL | solubility (Solubility limit): 0.08 mg/mL (≈ 268 µM)

OCC(O)Cn1c2ccc(Cl)cc2c2cc(Cl)ccc21 (stereo not shown) [DV 236818]
activity (concentration synergizing with fluconazole to a fungicidal effect) (C. albicans [2]): 5 µg/mL

Clc1ccc(COC(Cn2ccnc2)c2ccc(Cl)cc2Cl)cc1 (stereo not shown) [Econazole]
fraction absorbed into the blood ([3]; in vivo): Less than 1%

CC(=O)N1CCN(c2ccc(OCC3COC(Cn4ccnc4)(c4ccc(Cl)cc4Cl)O3)cc2)CC1 (stereo not shown) [Ketoconazole]
peak plasma concentrations ([3]; oral doses 200-800 mg): 4 to 20 µg/mL

Clc1ccccc1C(c1ccccc1)(c1ccccc1)n1ccnc1 [Clotrimazole]
absorption after application to the skin ([3]; in vivo): less than 0.5% | absorption from the vagina ([3]; in vivo): 3-10%
